Experimental data: patent publication US20140193802A1, “IDENTIFICATION OF AN ALTERED THERAPEUTIC SUSCEPTIBILITY TO ANTI-HCMV COMPOUNDS AND OF A RESISTANCE AGAINST ANTI-HCMV COMPOUNDS” (priority 2012, published 2014)
Values joined by “and” are separate entries in the source; they are usually repeats but may differ in a detail not shown here. Equal entries are not always repeated. Where two headings read alike, the source gives them in different places.

Columns and labels:
Type in all cases: cell-based, human cytomegalovirus (HCMV)
[1] = test system: RV-HG UL56-C325Yrev; assay: GFP-RA, marker transfer revertant; details: Human betaherpesvirus 5
Procedure: (§1) HCMV Fluorescence Reduction Assay (GFP-RA)
(§2) The susceptibilities of recombinant HCMV laboratory strains expressing GFP were determined by a GFP-based fluorescence reduction assay. For standard assays, 1.5×10^4 NHDF cells/well were cultured in black 96-well plates (Greiner Bio-One, Germany) and infected with either HCMV-GFP (MOI, 0.1) or RV-HG (MOI, 0.2 to 0.5). After virus adsorption, the virus inoculum was replaced with 200 μl fresh medium. Thereafter, 100 μl medium containing the test compounds was added to wells of horizontal row G, followed by serial 3-fold dilutions up to row A. All drug concentrations were tested at least in duplicate. Wells of the horizontal row H served as the virus control. Plates were incubated at 37° C. for 7 days. The medium was replaced by 200 μl PBS, and GFP units (GFPU) were determined by a charge-coupled-device-camera-based fluorescence detector (FluoBox; Bayer Technology Services GmbH, Leverkusen, Germany), which captures 96 images simultaneously. Drug effects were calculated as a percentage of reduction in GFPU in the presence of each drug concentration compared to the GFPU determined in the absence of drug. EC50 and EC90 values (drug concentrations producing 50% and 90% reduction in GFPU) were calculated using nonlinear regression curve fit with a variable slope. GraphPad Prism 3.02 or 4.0 software (GraphPad Software Inc., La Jolla, Calif.) was used for all analyses.
(§3) The HCMV AD169-derived bacterial artificial chromosome (BAC) pHG served as the backbone for the construction of the mutant viruses. The markerless introduction of point mutations into pHG was done using a two-step recombination protocol according to the en passant method. Briefly, a recombination fragment containing the I-SceI-AphAI cassette from plasmid pEPKan-S was obtained by PCR using primers containing ˜60 bp of homology to the intended integration site in ORF UL56 of BAC pHG and ˜20 bp specific for pEPKan-S. This fragment was electroporated into Escherichia coli GS1783 that harbored the pHG BAC. […] After successful kanamycin selection, all non-HCMV sequences were removed by an intrabacterial ISceI digest and a subsequent second Red recombination, resulting in the scarless repair of the mutated UL56 gene in the background of BAC pHG. The integrity of the generated BACs was confirmed by restriction enzyme digestion and sequencing. To reconstitute virus mutants, the recombinant BACs were transfected into permissive MRC5 cells. At least two independent virus clones per mutation were generated and evaluated.

[2] = test system: RV-HG UL56-R369M; assay: GFP-RA, marker transfer mutant; details: for EC50: Human betaherpesvirus 5, RV-HG UL56-R369M, fluorescence reduction assay, mean ± SD, read-out: EC50
Procedure: as §1, §2, §3

[3] = test system: RV-HG UL56-L241P; assay: GFP-RA, marker transfer mutant; details: for EC50: Human betaherpesvirus 5
Procedure: as §1, §2, §3

[4] = test system: RV-HG UL56-V236M; assay: GFP-RA, marker transfer mutant; details: for EC50: Human betaherpesvirus 5
Procedure: as §1, §2, §3

[5] = test system: RV-HG UL56-R369S; assay: GFP-RA, marker transfer mutant; details: for EC50: Human betaherpesvirus 5, RV-HG UL56-R369S, fluorescence reduction assay, mean ± SD, read-out: EC50
Procedure: as §1, §2, §3

[6] = test system: RV-HG (wt-HCMV); assay: HCMV fluorescence reduction assay (GFP-RA); details: Human betaherpesvirus 5
Procedure: as §1, §2, §3

[7] = test system: HCMV strain AD169; assay: HCMV cytopathic effect reduction assay (CPE-RA); details: Human betaherpesvirus 5, mean ± SD
Procedure: HCMV Cytopathic Effect Reduction Assay (CPE-RA)
CPE-RAs were performed basically as described elsewhere (HCMV replication assay). In brief, the addition of 2 μl test compound of 50, 5, 0.5, 0.05, 0.005, and 0.0005 mM DMSO stock solutions to 100 μl cell culture medium in duplicate was followed by serial 2-fold dilutions in 96-well microtiter plates. Each well was supplemented with 150 μl of either a suspension of 1×10^4 NHDF cells mixed with cell-free HCMV (multiplicity of infection (MOI), 0.03) or a suspension of 1×10^4 to 3×10^4 HCMV-infected and uninfected NHDF cells (MOI, 0.001 to 0.002). Non-infected and non-treated cells served as controls on each plate. Final compound concentrations ranged between 250 and 0.00005 μM. Plates were incubated for 6 to 7 days at 37° C. or until the virus control reached 100% CPE. A mixture containing 20% Giemsa stain (Merck) and 5% formalin solution (Merck) was added to the wells for fixation and staining. After extensive washing, plates were dried at 56° C. followed by visual evaluation using an overhead microscope (plaque magnifier; Tecnorama Zürich). Each assay was performed at least in triplicate, and standard deviations were calculated. The assay plate data were used to calculate the EC50 (CPE-RA), i.e., the concentration of drug that inhibits the CPE by 50% compared with an untreated virus-infected control.

[8] = test system: RV-HG-UL56 mutants; assay: GFP-RA, drug susceptibility profile of the virus mutants; details: fluorescence reduction assays; for BAY 38-4766 and BDCRB with the exception of the strain carrying UL56 R369M
Procedure: as §1, §2
as §3, with “The integrity of the generated BACs was confirmed by restriction enzyme digestion and sequencing.” left out

Row | Structure (SMILES) | EC50 [1] | EC50 [2] | EC50 [3] | EC50 [4] | EC50 [5] | EC50 [6] | EC50 [7] | sensitivity of the RV-HG-UL56 mutants compared with the parental wild-type virus RV-HG [8] | EC50 ([1]; RV-HG UL56-C325Yrev, fluorescence reduction assay, mean ± SD, read-out: EC50) | Resistance index (RI) = EC50 indicated RV-HG mutant/EC50 RV-HG wt ([2]; RV-HG UL56-R369M vs RV-HG wt) | EC50 ([3]; RV-HG UL56-L241P, fluorescence reduction assay, mean ± SD, read-out: EC50) | Resistance index (RI) = EC50 indicated RV-HG mutant/EC50 RV-HG wt ([3]; RV-HG UL56-L241P vs RV-HG wt) | EC50 ([4]; RV-HG UL56-V236M, fluorescence reduction assay, mean ± SD, read-out: EC50) | Resistance index (RI) = EC50 indicated RV-HG mutant/EC50 RV-HG wt ([4]; RV-HG UL56-V236M vs RV-HG wt) | Resistance index (RI) = EC50 indicated RV-HG mutant/EC50 RV-HG wt ([5]; RV-HG UL56-R369S vs RV-HG wt) | EC50 ([6]; RV-HG (wt-HCMV), fluorescence reduction assay, mean ± SD, read-out: EC50)
1 | Nc1nc(O)c2ncn(COC(CO)CO)c2n1 [Ganciclovir] | 2830 ± 810 nM | 1260 ± 640 nM | 2110 ± 770 nM | 1560 ± 330 nM | 1960 ± 1090 nM | 2210 ± 990 nM | 3400 ± 1500 nM | did not differ |  |  |  |  |  |  |  | 
2 | COc1cccc(N2CCN(C3=Nc4c(F)cccc4[C@H](CC(=O)O)N3c3cc(C(F)(F)F)ccc3OC)CC2)c1 [Letermovir, (S)-{8-fluoro-2-[4-(3-methoxyphenyl)-1-piperazinyl]-3-[2-methoxy-5-(trifluoromethyl)phenyl]-3,4-dihydro-4-quinazolinyl}acetic acid] |  | 40 ± 15 nM |  |  | 140 ± 70 nM |  | 5.6 ± 1.6 nM | resistant | 3.9 ± 0.9 nM | 13 | 680 ± 240 nM | ~160 and 221 | 70 ± 20 nM | 24 | ~38 and 48 | 3 ± 1.2 nM
